Literature values in patent publication US20090130187A1, “Covalent Conjugates of Cotton and Substitutes (Viscose, Modal Cotton) with Bioactive Substances Having Antiseptic, Sanitizing, Acaricidal and Insect Repellent Activity, and a Method for Obtaining Them” (priority 2006, published 2009).

System: rat

Clc1nc(Cl)nc(Cl)n1 [2,4,6-tri-chloro 1,3,5 triazine]
LD 50 (rat): 930 mg/kg
